Measured values published in publication PMC2803041 (Nature, 2009).

Columns and labels:
His-PYR1 with GST-ABI1 = biological target: T1, His-PYR1 with GST-ABI1 (Arabidopsis thaliana, UniProt O49686); experiment: in vitro reconstitution, radiometric kinase assay; type: biochemical
T1 sequence (O49686 1-191): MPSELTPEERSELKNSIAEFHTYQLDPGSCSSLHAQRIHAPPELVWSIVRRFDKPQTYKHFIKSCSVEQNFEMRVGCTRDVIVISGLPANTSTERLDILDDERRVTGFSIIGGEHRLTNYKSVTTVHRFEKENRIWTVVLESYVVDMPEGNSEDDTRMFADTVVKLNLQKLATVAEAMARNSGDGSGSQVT
T1 sequence (P49597 1-434 partner): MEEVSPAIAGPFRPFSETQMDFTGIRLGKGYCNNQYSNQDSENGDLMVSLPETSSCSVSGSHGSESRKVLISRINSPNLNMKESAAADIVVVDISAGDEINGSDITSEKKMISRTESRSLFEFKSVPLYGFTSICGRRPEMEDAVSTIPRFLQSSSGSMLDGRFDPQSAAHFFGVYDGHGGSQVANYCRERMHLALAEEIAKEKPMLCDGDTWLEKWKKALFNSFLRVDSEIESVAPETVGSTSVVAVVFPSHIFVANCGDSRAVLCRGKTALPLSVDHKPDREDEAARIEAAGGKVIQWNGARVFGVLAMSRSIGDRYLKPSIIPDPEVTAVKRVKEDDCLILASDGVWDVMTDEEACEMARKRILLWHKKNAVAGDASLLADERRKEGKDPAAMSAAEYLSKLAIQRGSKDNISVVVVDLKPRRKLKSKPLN

His-PYR1 with GST-HAB1 = biological target: T2, His-PYR1 with GST-HAB1 (Arabidopsis thaliana, UniProt O49686); experiment: in vitro reconstitution, radiometric kinase assay; type: biochemical; settings: HAB1 in place of ABI1
T2 sequence (O49686 1-191): T1 sequence (O49686 1-191)
T2 sequence (Q9CAJ0 1-511 partner): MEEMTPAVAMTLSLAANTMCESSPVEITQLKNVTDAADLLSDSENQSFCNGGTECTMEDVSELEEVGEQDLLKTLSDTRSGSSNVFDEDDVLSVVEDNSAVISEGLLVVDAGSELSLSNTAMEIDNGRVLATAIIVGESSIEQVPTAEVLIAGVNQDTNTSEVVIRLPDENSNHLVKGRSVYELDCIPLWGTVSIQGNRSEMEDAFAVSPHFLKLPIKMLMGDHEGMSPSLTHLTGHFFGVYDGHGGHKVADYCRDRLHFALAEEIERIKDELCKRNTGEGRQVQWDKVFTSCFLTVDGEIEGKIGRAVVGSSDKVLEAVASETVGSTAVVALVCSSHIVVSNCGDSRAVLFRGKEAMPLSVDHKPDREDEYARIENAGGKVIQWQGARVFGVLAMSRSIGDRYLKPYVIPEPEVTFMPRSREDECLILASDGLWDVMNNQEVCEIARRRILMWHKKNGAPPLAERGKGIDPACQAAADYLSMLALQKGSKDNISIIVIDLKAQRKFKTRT

In the case of `CC1=CC(=O)CC(C)(C)C1(O)/C=C/C(C)=C\C(=O)O` (stereo in doubt) [(+)-ABA], the EC50 (His-PYR1 with GST-ABI1) is reported as 0.8 µM and the “in vitro reconstitution, radiometric kinase assay” value (His-PYR1 with GST-HAB1) is reported as “reconstitution was also achieved when the PP2C protein HAB1 was used instead of ABI1”.
